Patent publication EP4813381A1, “PHARMACEUTICAL USE OF GUAIANE SESQUITERPENE DERIVATIVE” (Nanjing University Of Chinese Medicine, priority 2023, dated 2025)

Legend:
[1] = Water solubility testing of compounds (HPLC); details: deionized water, 37 °C water bath
[2] = test system: chronic kidney injury induced by unilateral ureteral ligation; test: Unilateral ureteral ligation (UUO) chronic kidney injury model in mice: Scr and BUN; type: in vivo, C57BL/6 mice; details: serum, 14 days
[3] = test system: renal injury markers (Ngal, Havcr1), inflammatory cytokines (TNF, IL-6, IL-1), fibrosis-related factors (α-Sma, Col1a1, Tgfb1); test: Folic acid acute kidney injury model in mice: Q-PCR of kidney tissue; type: in vivo, C57BL/6 mice; details: kidney mRNA, acute model (FA)
[4] = Conversion rate of salt-form prodrugs to parent compound in HEPES buffer solution; type: physicochemical; details: conversion to Compound 1, HEPES buffer pH 7.4, 37 °C
Method: Adjust the pH to 7.4 using 0.5 M NaOH, then dilute to a final volume 100 mL with distilled water.
(§1) Sample Analysis: Dissolve 0.6 mg of the compound in 250 µl of deionized water separately. Add 250 µl of mouse serum or HEPES 7.4 solution to the sample, incubate at a constant temperature of 37 °C, and collect samples at different time points. Pipette 20 µl of the sample to an EP tube, add 60 µl of methanol, vortex to mix thoroughly, and centrifuge at 12,000 rpm at 4 °C for 10 min. At 1 h, 2 h, 4 h, 8 h, and 12 h respectively, collect the supernatant for HPLC analysis. Inject 10 µL of sample and record the corresponding peak areas.

[5] = Conversion rate of salt-form prodrugs to parent compound in mouse plasma; type: in vitro ADME; details: conversion to Compound 1, mouse plasma, 37 °C
Method: Pharmaceutically acceptable salts of guaiane-type sesquiterpene lactone derivatives were selected and evaluated for their conversion rates to Compound 1 and Compound 83 in plasma and HEPES buffer, with results shown in Tables 2-1, 2-2, 3-1, and 3-2.
Plasma Preparation: Collect mouse plasma into an EP tube pre-loaded with sodium heparin, centrifuge at 8000 rpm for 10 minutes at 4°C, and then collect the supernatant.
as §1, with “areas. Chromatographic conditions: Hanbang C18 column (4.6 × 250 mm, 5 µm); mobile phase: acetonitrile: […] ammonium formate solution = 60:40; flow rate 1.0 mL/min; detection wavelength 210 nm; column temperature 30 °C. [drawing 171] Table 2-1. Conversion Rate of Compounds 20-42 to Compound 1 at Different Time Points in HEPES Buffer Solution” for “areas.”

[6] = test system: MDSCs and T cells; test: T cell proliferation in a co-culture model of MDSCs and T cells (flow cytometry); type: cell-based, mice; details: MDSCs treated with 1 µM compound for 12 h, 48 h co-culture with T cells (1:1), compared to the control group
Method: Under sterile conditions, the tibia was removed, both ends of the bone were cut, and bone marrow was repeatedly flushed into a 15 mL centrifuge tube using a 1 mL syringe filled with culture medium. Centrifuge at 1600 rpm for 5 min to collect bone marrow cells. […] The spleen cell suspension was then transferred into a 15 mL centrifuge tube. Centrifuge at 1600 rpm for 5 min to collect T cells. Wash twice with 1×PBS. Resuspend the centrifuged T cells in 1 mL PBS and add 1 mL of 10 µM CFDA-SE solution. Incubate at room temperature for 8 min. […] After drug administration, collect MDSC cells into centrifuge tubes. Centrifuge at 1600 rpm for 5 min, remove supernatant, resuspend in 1 mL fresh medium, and plate. Add 1 mL stimulated activated T cells (1:1 ratio) for 48 h co-culture. After incubation, collect cells into centrifuge tubes, wash twice with PBS, and incubate with Fc antibody at room temperature in the dark for 10 min. Add CD3-labeled flow cytometry antibody and incubate at 4 °C in the dark for 30 min. After incubation, wash cells with PBS, resuspend in 300 µL PBS, and analyze by flow cytometry.

Compound	Water-solubility [1] [µg/mL]	T-cell proliferation rate (%) [6]	other results
C[C@@]12CC[C@@H]3[C@H](OC(=O)[C@H]3CN3CCC4(CC3)CC4)[C@@H]3[C@]1(CC[C@@]3(C)O)C2 [compound 18]	584		
C[C@@]12CC[C@@H]3[C@H](OC(=O)[C@H]3CN3CC4CCCC4C3)[C@@H]3[C@]1(CC[C@@]3(C)O)C2 (stereo partly shown) [compound 13]	419		
CCCN(CCC)C[C@@H]1C(=O)O[C@H]2[C@H]1CC[C@@]1(C)C[C@]13CC[C@@](C)(O)[C@H]23 [compound 10]	715		
CN(C)C[C@@H]1C(=O)O[C@H]2[C@H]1CC[C@@]1(C)C[C@]13CC[C@@](C)(O)[C@H]23 [compound 21]			BUN ([2]; oral gavage 0.1 mg/kg): 17.63±1.13; Scr ([2]; oral gavage 0.1 mg/kg): 157.79±21.92; BUN ([2]; oral gavage 1 mg/kg, 1 mg/kg): 9.45±1.55; Scr ([2]; oral gavage 1 mg/kg, 1 mg/kg): 79.87±13.44; α-Sma ([3]; oral 0.1 mg/kg): 1.80±0.42; α-Sma ([3]; oral 1 mg/kg, 1 mg/kg): 0.90±0.21; Release rate ([4]; 1 h): 3.3%; Release rate ([4]; 2 h): 10.2%; Release rate ([4]; 4 h): 18.1%; Release rate ([4]; 8 h): 38.9%; Release rate ([4]; 12 h): 51.9%; Release rate ([5]; 1 h): 5.4%; Release rate ([5]; 2 h): 10.7%; Release rate ([5]; 4 h): 17.9%; Release rate ([5]; 8 h): 39.3%; Release rate ([5]; 12 h): 55.4%
C[C@@]12CC[C@@H]3[C@H](OC(=O)[C@H]3CN3CCC4(CCCC4)CC3)[C@@H]3[C@]1(CC[C@@]3(C)O)C2 [compound 15]	310		
CCOC(=O)[C@@H]1CCCN1C[C@@H]1C(=O)O[C@H]2[C@H]1CC[C@@]1(C)C[C@]13CC[C@@](C)(O)[C@H]23 [compound 4]	822	++ (T-cell proliferation rate within the 20-40% range compared to the control group)	
C[C@@]12CC[C@@H]3[C@H](OC(=O)[C@H]3CN3CCCCCCC3)[C@@H]3[C@]1(CC[C@@]3(C)O)C2 [compound 19]	623		
CN(C)C[C@@H]1C(=O)O[C@H]2[C@H]1CC[C@@]1(C)C[C@]13CC[C@@](C)(O)[C@H]23 [compound 2]		++ (T-cell proliferation rate within the 20-40% range compared to the control group)	
C[C@@]12CC[C@@H]3[C@H](OC(=O)[C@H]3CN3CCNCC3)[C@@H]3[C@]1(CC[C@@]3(C)O)C2 [compound 7]	1488		
C=C1C(=O)O[C@H]2[C@H]1CCC(C)=C1CC[C@@](C)(OC(=O)NCCN3CCOCC3)[C@@H]12 [compound 98]	202500	+ (T-cell proliferation rate within the 0-20% range compared to the control group)	
C=C1C(=O)O[C@H]2[C@H]1CCC(C)=C1CC[C@@](C)(OC(=O)NCCCC)[C@@H]12 [compound 67]		++ (T-cell proliferation rate within the 20-40% range compared to the control group)	
C=C1C(=O)O[C@H]2[C@H]1CCC(C)=C1CC[C@@](C)(OC(=O)NCCC)[C@@H]12 [compound 66]		+ (T-cell proliferation rate within the 0-20% range compared to the control group)	
CCCCN(CCCC)C[C@@H]1C(=O)O[C@H]2[C@H]1CC[C@@]1(C)C[C@]13CC[C@@](C)(O)[C@H]23 [compound 11]	682		
CC1=C2[C@H]3OC(=O)[C@@H](CN(C)C)[C@@H]3CC[C@@]3(C)C[C@@]23CC1 [compound 62]		+ (T-cell proliferation rate within the 0-20% range compared to the control group)	
CC(C)(C)OC(=O)N1CCN(C[C@@H]2C(=O)O[C@H]3[C@H]2CC[C@@]2(C)C[C@]24CC[C@@](C)(O)[C@H]34)CC1 [compound 44]		+ (T-cell proliferation rate within the 0-20% range compared to the control group)	
C=C1C(=O)O[C@H]2[C@H]1CCC(C)=C1CC[C@@](C)(OC(=O)N(CC)CCC)[C@@H]12 [compound 91]		++ (T-cell proliferation rate within the 20-40% range compared to the control group)	
C=C1C(=O)O[C@H]2[C@H]1CCC(C)=C1CC[C@@](C)(OC(=O)N(C)CCC)[C@@H]12 [compound 90]		++ (T-cell proliferation rate within the 20-40% range compared to the control group)	
C=C1C(=O)O[C@H]2[C@H]1CCC(C)=C1CC[C@@](C)(OC(=O)N3CCN(C)CC3)[C@@H]12 [compound 85]		+ (T-cell proliferation rate within the 0-20% range compared to the control group)	
C=C1C(=O)O[C@H]2[C@H]1CCC(C)=C1CC[C@@](C)(OC(=O)NCCOCCO)[C@@H]12 [compound 76]		++ (T-cell proliferation rate within the 20-40% range compared to the control group)	
C=C1C(=O)O[C@H]2[C@H]1CCC(C)=C1CC[C@@](C)(OC(=O)NC)[C@@H]12 [compound 64]		+++ (T-cell proliferation rate >40% compared to the control group)	
C=C1C(=O)O[C@H]2[C@H]1CCC(C)=C1CC[C@@](C)(OC(=O)NCC)[C@@H]12 [compound 65]		+ (T-cell proliferation rate within the 0-20% range compared to the control group)	
CCC(=O)O[C@]1(C)CC[C@@]23C[C@]2(C)CC[C@@H]2[C@H](CC(=O)[C@H]2CN(C)C)[C@H]31 [compound 63]		+ (T-cell proliferation rate within the 0-20% range compared to the control group)	
C=C1C(=O)O[C@H]2[C@H]1CCC(C)=C1CC[C@@](C)(OC(=O)N3CCC(N4CCOCC4)CC3)[C@@H]12 [compound 94]		++ (T-cell proliferation rate within the 20-40% range compared to the control group)	
